Assay results published in ChEMBL document CHEMBL2074045, “Up-regulation of P-glycoprotein expression in rat liver cells by acute doxorubicin treatment” (Eur J Biochem, 1997).

Assays:
[1] = target: ATP-dependent translocase ABCB1 (Rattus norvegicus, UniProt P43245); experiment: TP_TRANSPORTER: Northern blot in vitro, nonparenchymal ral liver epithelial cells; format: functional; conditions: epithelial cell
[2] = target: Multidrug resistance protein 1a (Rattus norvegicus) (UniProt Q6PSM0); experiment: TP_TRANSPORTER: Western in vitro, nonparenchymal ral liver epithelial cells; format: functional, tissue-based; conditions: Epithelial cell
Multidrug resistance protein 1a (Rattus norvegicus), sequence (Q6PSM0 as listed by the source): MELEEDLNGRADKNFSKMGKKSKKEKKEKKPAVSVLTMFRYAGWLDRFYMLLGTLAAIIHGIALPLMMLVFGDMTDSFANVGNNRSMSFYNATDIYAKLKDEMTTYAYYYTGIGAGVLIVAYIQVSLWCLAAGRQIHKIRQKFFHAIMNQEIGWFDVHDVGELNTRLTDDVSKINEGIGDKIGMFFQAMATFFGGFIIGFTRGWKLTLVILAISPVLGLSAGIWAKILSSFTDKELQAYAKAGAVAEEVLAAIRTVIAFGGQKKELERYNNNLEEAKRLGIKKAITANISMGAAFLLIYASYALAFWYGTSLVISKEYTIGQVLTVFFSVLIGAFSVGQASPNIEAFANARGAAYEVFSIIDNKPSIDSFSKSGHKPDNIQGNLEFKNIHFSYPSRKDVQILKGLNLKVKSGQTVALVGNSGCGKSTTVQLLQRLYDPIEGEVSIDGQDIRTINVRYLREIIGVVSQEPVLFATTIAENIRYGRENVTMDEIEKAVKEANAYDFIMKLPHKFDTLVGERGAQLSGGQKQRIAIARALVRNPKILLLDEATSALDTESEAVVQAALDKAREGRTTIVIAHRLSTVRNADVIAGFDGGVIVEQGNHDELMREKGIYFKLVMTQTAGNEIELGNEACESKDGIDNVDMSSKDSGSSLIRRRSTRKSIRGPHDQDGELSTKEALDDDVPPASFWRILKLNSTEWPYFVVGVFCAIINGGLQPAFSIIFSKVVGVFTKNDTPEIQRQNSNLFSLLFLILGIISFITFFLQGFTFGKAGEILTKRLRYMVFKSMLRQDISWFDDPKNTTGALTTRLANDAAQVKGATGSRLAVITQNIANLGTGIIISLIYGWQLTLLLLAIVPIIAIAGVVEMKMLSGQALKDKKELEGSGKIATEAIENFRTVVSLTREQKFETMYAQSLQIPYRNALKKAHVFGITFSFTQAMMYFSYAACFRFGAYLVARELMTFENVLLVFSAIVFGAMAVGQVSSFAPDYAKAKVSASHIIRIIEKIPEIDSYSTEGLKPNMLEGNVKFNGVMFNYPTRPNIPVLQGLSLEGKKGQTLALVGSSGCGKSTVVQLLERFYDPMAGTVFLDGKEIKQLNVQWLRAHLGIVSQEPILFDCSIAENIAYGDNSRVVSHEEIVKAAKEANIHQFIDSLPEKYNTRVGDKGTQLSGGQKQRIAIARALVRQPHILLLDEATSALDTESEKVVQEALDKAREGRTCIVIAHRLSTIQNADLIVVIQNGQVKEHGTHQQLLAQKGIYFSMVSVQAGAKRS

ATP-dependent translocase ABCB1, sequence (P43245 whole entry): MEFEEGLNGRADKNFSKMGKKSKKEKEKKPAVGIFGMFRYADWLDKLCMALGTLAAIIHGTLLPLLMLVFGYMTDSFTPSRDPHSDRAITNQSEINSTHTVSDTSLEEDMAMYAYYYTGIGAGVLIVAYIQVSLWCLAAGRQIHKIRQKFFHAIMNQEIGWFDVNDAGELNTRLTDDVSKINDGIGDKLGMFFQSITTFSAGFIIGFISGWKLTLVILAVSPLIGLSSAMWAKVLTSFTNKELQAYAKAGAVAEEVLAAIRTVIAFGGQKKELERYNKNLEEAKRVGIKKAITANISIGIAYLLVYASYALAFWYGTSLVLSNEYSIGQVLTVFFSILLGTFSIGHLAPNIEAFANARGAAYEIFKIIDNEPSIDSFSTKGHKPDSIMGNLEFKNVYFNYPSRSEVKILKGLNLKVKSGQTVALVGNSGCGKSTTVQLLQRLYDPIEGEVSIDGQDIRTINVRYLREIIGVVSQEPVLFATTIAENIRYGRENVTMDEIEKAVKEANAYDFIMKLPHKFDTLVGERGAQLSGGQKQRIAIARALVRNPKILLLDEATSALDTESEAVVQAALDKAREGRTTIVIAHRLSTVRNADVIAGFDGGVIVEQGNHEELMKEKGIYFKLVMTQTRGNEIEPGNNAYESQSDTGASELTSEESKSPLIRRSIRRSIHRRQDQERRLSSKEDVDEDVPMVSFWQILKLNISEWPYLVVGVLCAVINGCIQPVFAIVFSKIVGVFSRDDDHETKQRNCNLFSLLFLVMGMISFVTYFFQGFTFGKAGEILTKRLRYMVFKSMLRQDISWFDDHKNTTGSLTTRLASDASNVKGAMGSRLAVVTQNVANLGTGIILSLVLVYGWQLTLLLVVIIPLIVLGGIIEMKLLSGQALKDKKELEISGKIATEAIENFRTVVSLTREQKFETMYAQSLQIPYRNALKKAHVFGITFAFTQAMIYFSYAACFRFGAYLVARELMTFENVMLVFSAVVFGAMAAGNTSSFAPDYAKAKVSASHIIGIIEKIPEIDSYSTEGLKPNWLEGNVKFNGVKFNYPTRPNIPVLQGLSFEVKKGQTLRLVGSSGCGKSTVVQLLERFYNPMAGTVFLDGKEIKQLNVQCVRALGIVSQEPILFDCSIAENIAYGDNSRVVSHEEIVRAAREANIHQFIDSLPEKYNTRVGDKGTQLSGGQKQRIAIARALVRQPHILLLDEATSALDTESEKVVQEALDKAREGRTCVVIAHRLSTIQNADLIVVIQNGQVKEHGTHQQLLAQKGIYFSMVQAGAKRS

Activity [1]: inducer [+]
Activity [2]: inducer [+]
Compound: COc1cccc2c1C(=O)c1c(O)c3c(c(O)c1C2=O)C[C@@](O)(C(=O)CO)C[C@@H]3O[C@H]1C[C@H](N)[C@H](O)[C@H](C)O1 [DOXORUBICIN]
